Where a name gives a salt, the structure may show the parent alone.
What was measured:
[1] = molecular target: pseudo-kinase domain (JH2) of human Wild Type JAK2 (Homo sapiens (Human), UniProt O60674, F794H/W659A/W777A); assay: JAK2 LanthaScreen JH2-WT Binding Assay; settings: 50 nM tracer, 1 hour at 25° C.
Description: Example B. JAK2 LanthaScreen JH2-WT Binding Assay
(§1) JAK2 JH2-WT binding assay utilizes pseudo-kinase domain (JH2, amino-acids 536-812 with 3 surface mutations W659A, W777A, F794H) of human Wild Type JAK2 expressed as C-terminal His-Avi-tagged, biotinylated protein in a baculovirus expression system (BPS Bioscience, Catalog #79463). The assay was conducted in black 384-well polystyrene plates in a final reaction volume of 20 μL. JAK2 JH2-WT (0.145 nM) was incubated with compounds (100 nL serially diluted in DMSO) in the presence of 50 nM Fluorescent JAK2-JH2 Tracer (MedChem Express Catalog #HY-102055) and 0.25 nM Streptavidin-Tb cryptate (Cisbio Part #610SATLB) in assay buffer (50 mM Tris, pH=7.5, 10 mM MgCl2, 0.01% Brij-35, 0.1% BSA, 1 mM EGTA, 5% Glycerol and 5 mM DTT). Non-specific binding was accessed in the presence of 2 mM ATP. After incubation for 1 hour at 25° C., LanthaScreen signals were read on a PHERAstar FS plate reader (BMG LABTECH). Data was analyzed with IDBS XLfit and GraphPad Prism 5.0 software using a four parameter dose response curve to determine IC50 for each compound.

[2] = molecular target: pseudo-kinase domain (JH2) of human V617F mutant JAK2 (Homo sapiens (Human), UniProt O60674, F794H/V617F/W659A/W777A); assay: JAK2 LanthaScreen JH2-V617F Binding Assay; settings: 50 nM tracer, 1 hour at 25° C.
pseudo-kinase domain (JH2) of human V617F mutant JAK2, sequence (O60674 536-812 V617F/W659A/W777A/F794H): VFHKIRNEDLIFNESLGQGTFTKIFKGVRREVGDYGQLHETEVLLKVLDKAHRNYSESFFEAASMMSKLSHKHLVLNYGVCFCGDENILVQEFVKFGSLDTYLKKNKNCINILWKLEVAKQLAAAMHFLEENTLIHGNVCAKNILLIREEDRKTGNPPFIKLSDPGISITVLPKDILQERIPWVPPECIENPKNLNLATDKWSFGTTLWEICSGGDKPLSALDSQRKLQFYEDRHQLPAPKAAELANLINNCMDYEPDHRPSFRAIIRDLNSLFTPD
Description: Example C. JAK2 LanthaScreen JH2-V617F Binding Assay
as §1, with “JH2-V617F” for “JH2-WT”, “V617F mutant” for “Wild Type”, “#79498).” for “#79463).”, “JH2-V617F (0.26” for “JH2-WT (0.145”

[3] = molecular target: T1, catalytic domain (JH1) of human JAK2 (Homo sapiens (Human), UniProt O60674); assay: JAK2 HTRF Enzyme Activity Assay; type: biochemical; settings: ATP 30 μM; read-out: ENZ 30UMATP IC50
Description: Example D. JAK2 HTRF Enzyme Activity Assay
JAK2 enzyme activity assays utilize catalytic domain (JH1, amino acids 808-1132) of human JAK2 expressed as N-terminal His-tagged protein in a baculovirus expression system (BPS Bioscience, Catalog #40450). The assays was conducted in black 384-well polystyrene plates in a final reaction volume of 20 μL. JAK2 (0.015 nM) was incubated with compounds (100 nL serially diluted in DMSO) in the presence of ATP (30 μM or 1 mM) and 500 nM Biotin-labeled EQEDEPEGDYFEWLE (SEQ ID NO.: 1) peptide (BioSource International, custom synthesis) in assay buffer (50 mM Tris, pH=7.5, 10 mM MgCl2, 0.01% Brij-35, 0.1% BSA, 1 mM EGTA, 5% Glycerol and 5 mM DTT) for 60 minutes at 25° C. The reactions were stopped by the addition of 10 μL of detection buffer (50 mM Tris, pH 7.8, 0.5 mg/mL BSA, 150 mM NaCl), supplemented with EDTA, LANCE Eu-W1024 anti-phosphotyrosine (PY20), (PerkinElmer, Catalog #AD0067) and Streptavidin SureLight APC (PerkinElmer Catalog #CR130-100), for a final concentration of 15 mM, 1.5 nM and 75 nM, respectively. HTRF signals were read after 30 minutes incubation at room temperature on a PHERAstar FS plate reader (BMG LABTECH). Data was analyzed with IDBS XLfit and GraphPad Prism 5.0 software using a four parameter dose response curve to determine IC50 for each compound.
Target sequence in this assay (O60674 808-1132): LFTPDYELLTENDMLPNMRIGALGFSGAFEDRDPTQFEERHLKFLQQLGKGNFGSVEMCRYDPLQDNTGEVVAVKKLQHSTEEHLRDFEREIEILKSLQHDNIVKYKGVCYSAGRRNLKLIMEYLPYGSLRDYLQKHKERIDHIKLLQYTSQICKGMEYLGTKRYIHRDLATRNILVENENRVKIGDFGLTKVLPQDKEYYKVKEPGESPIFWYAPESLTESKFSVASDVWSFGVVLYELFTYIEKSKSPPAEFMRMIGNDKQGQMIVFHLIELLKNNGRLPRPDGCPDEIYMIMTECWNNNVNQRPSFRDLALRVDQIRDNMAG

[4] = molecular target: T1, catalytic domain (JH1) of human JAK2; assay: JAK2 LanthaScreen JH1 Binding Assay; settings: JAK2 JH1, 50 nM tracer, 2 hours at 25° C.
Description: Example A. JAK2 LanthaScreen JH1 Binding Assay
JAK2 JH1 binding assay utilizes catalytic domain (JH1, amino acids 826-1132) of human JAK2 expressed as N-terminal FLAG-tagged, biotinylated protein in a baculovirus expression system (Carna Biosciences, Product #08-445-20N). The assay was conducted in black 384-well polystyrene plates in a final reaction volume of 20 μL. JAK2 JH1 (1.5 nM) was incubated with compounds (100 nL serially diluted in DMSO) in the presence of 50 nM Fluorescent JAK2-JH1 Tracer and 0.5 nM Streptavidin-Tb cryptate (Cisbio Part #610SATLB) in assay buffer (50 mM Tris, pH=7.5, 10 mM MgCl2, 0.01% Brij-35, 0.1% BSA, 1 mM EGTA, 5% Glycerol and 5 mM DTT). Non-specific binding was accessed in the presence of 2 mM ATP. After incubation for 2 hours at 25° C., LanthaScreen signals were read on a PHERAstar FS plate reader (BMG LABTECH). Data was analyzed with IDBS XLfit and GraphPad Prism 5.0 software using a four parameter dose response curve to determine IC50 for each compound.
Target sequence in this assay (O60674 826-1132): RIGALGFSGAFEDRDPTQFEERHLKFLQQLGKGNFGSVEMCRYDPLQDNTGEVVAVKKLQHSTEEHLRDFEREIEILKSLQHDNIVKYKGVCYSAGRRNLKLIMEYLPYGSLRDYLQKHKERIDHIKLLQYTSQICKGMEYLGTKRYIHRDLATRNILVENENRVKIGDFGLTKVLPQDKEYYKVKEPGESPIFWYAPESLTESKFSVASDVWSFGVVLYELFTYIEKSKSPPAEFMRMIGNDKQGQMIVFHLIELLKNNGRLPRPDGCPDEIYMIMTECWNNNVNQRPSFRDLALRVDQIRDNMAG

pseudo-kinase domain (JH2) of human Wild Type JAK2, sequence (O60674 536-812 W659A/W777A/F794H): as the sequence (O60674 536-812 V617F/W659A/W777A/F794H) above, with F82V counted along it

Compound | IC50 [1] | IC50 [2] | IC50 [3] | IC50 [4]
CCNC(=O)NC1CCC2(CC1)C(=O)N(C)c1cnc(Nc3ccc4cccc(C(F)(F)F)c4n3)cc12 (single isomer, unassigned) [Example 2, 1-Ethyl-3-((1r,4r)-1′-(methyl-d3)-2′-oxo-5′-((8-(trifluoromethyl)quinolin-2-yl)amino)-1′,2′-dihydrospiro[cyclohexane-1,3′-pyrrolo[2,3-c]pyridin]-4-yl)urea, trifluoroacetate salt] | ≤ 0.1 µM |  |  | 
[2H]C([2H])([2H])N1c2cnc(Nc3ccc4cccc(C(F)(F)F)c4n3)cc2[C@]2(C[C@@H](CNC(=O)OC)C2)C1=O [Example 3, Methyl (((1r,3r)-1′-(methyl-d3)-2′-oxo-5′-((8-(trifluoromethyl)quinolin-2-yl)amino)-1′,2′-dihydrospiro[cyclobutane-1,3′-pyrrolo[2,3-c]pyridin]-3-yl)methyl)carbamate, trifluoroacetate salt] |  | ≤ 0.1 µM | > 2.5 µM | 
CCNC(=O)NC1CCC2(CC1)C(=O)N(C)c1cnc(Nc3ccc4cccc(C(F)(F)F)c4n3)cc12 (single isomer, unassigned) [Example 1, 1-Ethyl-3-((1s,4s)-1′-(methyl-d3)-2′-oxo-5′-((8-(trifluoromethyl)quinolin-2-yl)amino)-1′,2′-dihydrospiro[cyclohexane-1,3′-pyrrolo[2,3-c]pyridin]-4-yl)urea, trifluoroacetate salt] |  | ≤ 0.1 µM | > 2.5 µM | > 2.5 µM
[2H]C([2H])([2H])N1c2cnc(Nc3ccc4c(n3)c(-c3cnn(C(F)(F)F)c3)nn4C)cc2[C@]2(C[C@@H](CO)C2)C1=O [Example 5, (1r,3r)-3-(Hydroxymethyl)-1′-(methyl-d3)-5′-((1-methyl-3-(1-(trifluoromethyl)-1H-pyrazol-4-yl)-1H-pyrazolo[4,3-b]pyridin-5-yl)amino)spiro[cyclobutane-1,3′-pyrrolo[2,3-c]pyridin]-2′(1′H)-one, trifluoroacetate salt] |  | ≤ 0.1 µM | > 2.5 µM | 
[2H]C([2H])([2H])N1C(=O)C2(CCC(NC(=O)NCC)CC2)c2cc(Nc3ccc4cccc(C(F)(F)F)c4n3)ncc21 (single isomer, unassigned) [Example 1, 1-Ethyl-3-((1s,4s)-1′-(methyl-d3)-2′-oxo-5′-((8-(trifluoromethyl)quinolin-2-yl)amino)-1′,2′-dihydrospiro[cyclohexane-1,3′-pyrrolo[2,3-c]pyridin]-4-yl)urea, trifluoroacetate salt] | ≤ 0.1 µM |  |  | 
[2H]C([2H])([2H])N1c2cnc(Nc3ccc4c(n3)c(-c3cnn(C(F)(F)F)c3)nn4C)cc2[C@]2(C[C@@H](CNC(=O)C3CC3)C2)C1=O [Example 7, N-(((1r,3r)-1′-(Methyl-d3)-5′-((1-methyl-3-(1-(trifluoromethyl)-1H-pyrazol-4-yl)-1H-pyrazolo[4,3-b]pyridin-5-yl)amino)-2′-oxo-1′,2′-dihydrospiro[cyclobutane-1,3′-pyrrolo[2,3-c]pyridin]-3-yl)methyl)cyclopropanecarboxamide, trifluoroacetate salt] |  | ≤ 0.1 µM | > 2.5 µM | 
[2H]C([2H])([2H])N1c2cnc(Nc3ccc4c(n3)c(-c3cnn(C(F)(F)F)c3)nn4C)cc2[C@]2(C[C@@H](CNC(=O)OC)C2)C1=O [Example 6, Methyl (((1r,3r)-1′-(methyl-d3)-5′-((1-methyl-3-(1-(trifluoromethyl)-1H-pyrazol-4-yl)-1H-pyrazolo[4,3-b]pyridin-5-yl)amino)-2′-oxo-1′,2′-dihydrospiro[cyclobutane-1,3′-pyrrolo[2,3-c]pyridin]-3-yl)methyl)carbamate, trifluoroacetate salt] |  | ≤ 0.1 µM | > 2.5 µM | 
[2H]C([2H])([2H])N1c2cnc(Nc3ccc4cccc(C(F)(F)F)c4n3)cc2[C@]2(C[C@@H](CNC(=O)C3CC3)C2)C1=O [Example 4, N-(((1r,3r)-1′-(Methyl-d3)-2′-oxo-5′-((8-(trifluoromethyl)quinolin-2-yl)amino)-1′,2′-dihydrospiro[cyclobutane-1,3′-pyrrolo[2,3-c]pyridin]-3-yl)methyl)cyclopropanecarboxamide, trifluoroacetate salt] |  | ≤ 0.1 µM | > 2.5 µM | 

Reference: patent publication US20250101020A1, “SPIROCYCLIC LACTAM INHIBITORS” (Incyte Corporation, priority 2023, published 2025)
